Where two headings read alike, the source gives them in different places.
Assays:
[1] = tested on: sporadic PD patient fibroblasts; assay: Mitochondrial membrane potential (MMP, TMRM) in sporadic PD patient fibroblasts; type: cell-based; conditions: Homo sapiens, Fibroblast, 6 sporadic PD patient fibroblasts, 24 h; for EC50: read-out: MMP EC50; for activity at 0.3 µM: max response with highest dose (300 nM), read-out: MMP Top (% of vehicle treated); for activity at 60 pM: max response with lowest dose (0.06 nM), read-out: MMP Bottom (% of vehicle treated)
Description: (§1) Fibroblasts were cultured in DMEM (Invitrogen) and routinely subcultured every 3-5 days using trypsin to dissociate them.
Fibroblasts were cultured and plated into a Griener black 384 pClear® plate at 10000 cells per well in 50 μl of media volume. The plates are left overnight in an incubator to allow the fibroblasts to adhere to the plate surface. The following morning the Glucose based medium is replaced with 25 μl of Galactose based media. The plates were then dosed with the compounds using an ECHO® 550 liquid handling system. The wells were dosed to provide an 8-point concentration range of 0.06 nM-300 nM of compound. After dosing the wells are topped up with a further 25 μl of Galactose based medium and then left in an incubator for 24 hours. After 24 hours, the medium is removed from the wells and replaced with 25 ul phenol free Minimal essential medium with 100 nM TMRM (Sigma) and 10 μM Hoechst Stain (Sigma). The plate is returned to the incubator for another hour after which the stain medium is removed and replaced with 25 ul Phenol free MEM. The plate is then imaged using an IN Cell high content microscope (GE Healthcare) with 10 fields of view per well in 2 channels, Cy3 excitation 542 nm, emission 604-64 nm; and the DAPI excitation 350 nm, emission 450-55 nm at 37° C. with CO2. After imaging the plate is disposed of and the images are Data mined using the INCell developer Toolkit (GE Healthcare).
(§2) After the assays had been repeated in triplicate per line and compound the data was then inputted into Graph pad Prism 7 software suite where a dose response curve is generated using the default “[Agonist] vs response (three parameters)” equation.
(§3) From this EC50 values, lowest response and maximal response were taken and used to calculate the Geometric mean between the 5 different lines assessed.
The mitochondrial membrane potential was measured in fibroblasts from 6 (Table 1) or 3 (Table 2) patients with sporadic Parkinson's disease when treated with Compounds of the invention or Comparator compounds. The results are shown in Tables 1 and 2, where “Bottom”=max response with lowest dose of compound (0.06 nM) and “top”=max response with highest dose of compound (300 nM).

[2] = tested on: sporadic PD patient fibroblasts; assay: Cellular ATP levels (ATPlite, normalised to CyQUANT DNA content) in sporadic PD patient fibroblasts; type: cell-based; conditions: Homo sapiens, Fibroblast, 6 sporadic PD patient fibroblasts, 24 h; for EC50: read-out: Cellular ATP levels EC50; for activity at 0.3 µM: max response with highest dose (300 nM), read-out: Cellular ATP levels Top (% of vehicle treated); for activity at 60 pM: max response with lowest dose (0.06 nM), read-out: Cellular ATP levels Bottom (% of vehicle treated)
Description: as §1
The ATP protocol is generally as described in Mortiboys et al, “Mitochondrial function and morphology are impaired in parkin-mutant fibroblasts”, Ann Neurol. 2008 November; 64(5):555-65. Briefly, fibroblasts were cultured as and plated into white 384 well plates with 5000 cells per well in 50 μl of media volume. The plates are left overnight in an incubator to allow the fibroblasts to adhere to the plate surface. The following morning the Glucose based medium is replaced with 25 μl of Galactose based medium. The compounds are added to the plates using a ECHO 550 liquid handling system. The wells were dosed to provide an 8-point concentration range of 0.06 nM-300 nM of compound. After dosing the wells are topped up with a further 25 μl of Galactose based medium and then left in an incubator for 24 hours. Following this incubation the medium is removed from the plate and the wells are washed twice with sterile PBS. The wells are filled with 25 μl of Sterile PBS followed by 12.5 μl of Lysis solution from the ATPlite™ Luminescence ATP detection assay system (Perkin Elmer), including 16 cell free wells to use as blank controls. The plate is then placed on a rotary shaker for 5 mins at 700 rpm. Following the shaking 12.5 μl of ATP substrate solution (Perkin Elmer) is added to each well and a further 5 min of shaking. The plate is then placed in darkness for 10 minutes prior to reading. Using a PHERAStar® plate reader, luminescence intensity is recorded. Following the ATP assay the plates are immediately assayed for DNA content in a CyQUANT® assay.
Immediately following The ATP assay DNA content is assessed with the CyQUANT® NF Cell Proliferation Assay Kit (ThermoFisher). CyQUANT® buffer is prepared immediately before the assay and is comprised of 1 ul CyQUANT® dye per ml×1 HBSS solution. 12.5 ul of CyQUANT® buffer is added to each well. Plate left in incubator for 1 hour then read on a PHERAStar® Plate reader with excitation at 497 nm and emission at 520 nm. ATP Quantification for each well is determined using the following formula: […]
as §2, §3
Cellular ATP levels were measured in fibroblasts from 6 (Table 3) or 3 (Table 4) patients with sporadic Parkinson's disease when treated with Compounds of the invention or Comparator compounds. The results are shown in Tables 3 and 4, where “Bottom”=max response with lowest dose of compound (0.06 nM) and “top”=max response with highest dose of compound (300 nM).

[3] = tested on: sAD and familial AD (PSEN1 mutants) patient fibroblasts; assay: Total cellular ATP levels in Alzheimer's disease patient fibroblasts; type: cell-based, human; conditions: 24 hour treatment at 100 nM, 21% restores to control levels
Description: Data shown in the Table 6 below is the mean increase in ATP levels after 24 hour treatment with compounds at 100 nM concentration.

[4] = tested on: mitochondrial respiratory chain complex I; assay: Complex I assay, left striatum brain homogenate of mice dosed with or without MPTP; type: in vivo, mouse; conditions: left striatum mouse brain homogenate; MPTP alone; FIG. 4
Description: Ex vivo mice brain was homogenated in a buffer of 250 mM sucrose, 20 mM HEPES, 3 mM EDTA, pH 7.5 at 4° C. Homogenisation was carried out using a Dounce homogenizer, for cortex samples, and by repetitive passage through a 0.5 mm syringe for isolated striatum. Samples were then incubated with 30 μl of detergent from the AbCam colorimetric Complex I assay kit on ice for 20 minutes. Samples are then centrifuged at 13,000 rpm for 30 mins. Triplicate samples per condition were blocked using the kit blocking buffer on the AbCam colorimetric Complex I assay kit plate for 3 hours. Samples are then washed using the kit wash buffer 3 times before the addition of the kit assay buffer containing NADH and colorimetric dye. The assay plate is read on a plate reader in a kinetic assay programme reading 450 nm in a 30 second interval for 50 minutes.

[5] = tested on: sporadic PD patient fibroblast lines; assay: Seahorse assay (oxygen consumption, extracellular acidification rate) in sPD fibroblasts; type: cell-based, human; conditions: Homo sapiens, Fibroblast; concentration at which compounds were dosed in the seahorse assay; read-out: EC90 concentration
Description: Fibroblasts are plated into Seahorse 24 well plates with 50,000 cells per well. Cells are left to attach for 2 days. Media is changed to Seahorse DMEM media with glucose and sodium pyruvate and left to equilibrate at 37 degrees normal air CO2 for 1 hour. The plate is entered into the Seahorse machine and run on a program of mix (2 minutes), wait (3 minutes) and measure (3 minutes). After three measurements of basal respiration and ECAR; 0.5 μM oligomycin is injected after which another three measurements are taken; then 0.5 μM of FCCP is injected and three measurements taken and finally 1 μM rotenone is injected and three measurements taken. After all measurements are complete, cells are stained with 10 μM Hoescht and imaged using the InCell to count the number of cells per well for normalisation. This classical ritochondrial stress test experimental protocol allows us to calculate the basal mitochondrial respiration, ATP linked respiration (the amount which is coupled to ATP generation), the maximal and spare respiratory capacity, the non-mitochondrial respiration rate and the extracellular acidification rate which is a proxy measure of glycosolysis.

[6] = tested on: dopaminergic neurons derived from sPD patients (iNeurons); assay: Mitochondrial function and neuronal morphology measurements in iNeurons from sPD patients; type: cell-based, human; conditions: iNeurons from sPD patients; for EC50: Homo sapiens, Neuron
Description: as §1
(§4) Briefly, iNPCs are plated in a 6-well plate and cultured for 2 days in DMEM/F-12 medium with Glutamax™ supplemented with 1% NEAA, 2% B27 (Gibco) and 2.5 μM of DAPT. On day 3, DAPT is removed and the medium is supplemented with 1 μM smoothened agonist (SAG) and FGF8 (75 ng/ml) for additional 10 days. Neurons are replated at this stage. Subsequently SAG and FGF8 are withdrawn and replaced with BDNF (30 ng/ml), GDNF (30 ng/ml), TGF-b3 […] and dcAMP (2 mM, Sigma) for 15 days.
Cells are plated in 96 well plates; for live imaging cells are incubated for one hour at 37 degree with 80 nM tetramethlyrhodamine (TMRM), 1 μM LysoTracker® Green (Invitrogen) and Hoechst Stain solution (Sigma) at 1 μM before imaging using Opera Phenix™. Cellular ATP measurements are undertaken using ATPlite kit (Perkin Elmer) as per manufacturer's instructions. Mitochondrial reactive oxygen species generation was assessed using mitochondrial NpFR2 (probe; a kind gift from Dr Liz New, University of Sydney, Australia) at 20 μM and Hoechst stain solution at 1 μM for 30 mins at 37° C., then the dyes are removed and cells images using Opera Phenix™. Images generated from the live imaging experiments were analysed using Harmony® (Perkin Elmer software). We developed protocols in order to segment nucleus, cell boundary and processes, mitochondria, lysosomes, autophagosomes. We only analysed the z projection images collected from the z stacks.

[7] = tested on: dopaminergic neurons derived from sPD patients (iNeurons); assay: Activated caspase 3 immunofluorescence staining in iNeurons; type: cell-based, human; conditions: untreated sPD 162
Description: as §4
Cells are plated into 96 well plates and fixed using 4% paraformaldehyde for 30 minutes. After PBS washes cells are permeabilised using 0.1% Triton™ X-100 for 10 minutes and blocked using 5% goat serum for 1 hour. Cells are incubated with primary antibodies tyrosine hydroxylase (St John's Laboratory); DAT (Abcam); Tuj (Millipore); Tom20 (BD Biosciences); activated caspase 3 (Cell Signaling); alpha synuclein (Cell Signaling); phosphorylated alpha synuclein (Millipore) at 4° C. for 16 hours. Cells are washed using PBS-Tween® and incubated with Alexa Fluor™-conjugated secondary antibodies 488 and 568 (Invitrogen) and Hoescht (Sigma) 1 μM prior to imaging. Imaging was performed using the Opera Phenix™ high content imaging system (Perkin Elmer).

[8] = tested on: dopaminergic neurons derived from sPD patients (iNeurons); assay: Dopamine ELISA in iNeurons; type: cell-based, human; conditions: untreated sPD 0
Description: as §4
Dopamine ELISA is performed using Dopamine research ELISA kit (Labor Diagnostika Nord GmbH&Co. KG) as per manufacturers instructions. Dopamine release is obtained incubating the cells at 37° C. using three different conditions at the same time per line. Medium is removed in all wells then the first well is incubated with HBSS with Ca^2+ and Mg^2+ (Gibco by Life Technologies) for 30 minutes, the second well is incubated in HBSS with Ca^2+ and Mg^2+ for 15 minutes and then 56 mM KCl (Fisher chemical) is added for another 15 minutes and the third well is incubated with HBSS without Ca^2+ and Mg^2+ (Gibco by Life Technologies) but with 2 mM EDTA for 15 min and then 56 mM KCl is added for another 15 minutes. Straight away media is collected in an eppendorf and cells are harvested using Accutase®, centrifuge at 400 g for 4 min and resuspended in 10 μl of PBS. […]

C[C@H](CCC(=O)O)[C@H]1CC[C@H]2[C@@H]3[C@H](O)C[C@@H]4C[C@@H](O)[C@@H](F)C[C@]4(C)[C@H]3CC[C@]12C [Compound 2, 2β-fluoro-3β,7α-dihydroxy-5β-cholanic acid]
EC50 [1]: 20.8 nM | activity at 0.3 µM [1]: 112% | activity at 60 pM [1]: 107% | EC50 [2]: 1.08 nM | activity at 0.3 µM [2]: 113% | activity at 60 pM [2]: 79.9% | % increase over vehicle treated (mean increase in ATP levels) [3]: 65%

C[C@H](CCC(=O)O)[C@H]1CC[C@H]2[C@@H]3[C@H](O)C[C@@H]4C[C@H](O)C(F)(F)C[C@]4(C)[C@H]3CC[C@]12C [Compound 8, 2,2-difluoro-3α,7α-dihydroxy-5β-cholanic acid]
% increase over vehicle treated (mean increase in ATP levels) [3]: 65%

C[C@H](CCC(=O)O)[C@H]1CC[C@H]2[C@@H]3[C@H](O)C[C@@H]4C[C@H](O)C(F)=C[C@]4(C)[C@H]3CC[C@]12C [Compound H, 2-fluoro-3α,7α-dihydroxy-5β-chol-1-enic acid, reference compound]
EC50 [1]: 4.58 nM | activity at 0.3 µM [1]: 109% | activity at 60 pM [1]: 99.8% | EC50 [2]: 0.125 nM | activity at 0.3 µM [2]: 121% | activity at 60 pM [2]: 87.6%

CN1CC=C(c2ccccc2)CC1 [MPTP, 1-methyl-4-phenyl-1,2,3,6-tetrahydropyridine, reference compound]
Reduction in complex I activity compared with untreated controls [4]: 50%

C[C@H](CCC(=O)O)[C@H]1CC[C@H]2[C@@H]3[C@@H](O)C[C@@H]4C[C@H](O)CC[C@]4(C)[C@H]3CC[C@]12C [UDCA, ursodeoxycholic acid, reference compound]
EC90 [5]: 100 nM | EC50 ([6]; read-out: ATP EC50): 5 nM | EC50 ([6]; read-out: MMP EC50): 7.3 nM | Neuronal morphology (elongation; % controls) ([6]; untreated sPD 48): 64 % controls | ATP normalisation (% of controls) ([6]; untreated sPD 50): 82 % of controls | MMP normalisation (% of controls) ([6]; untreated sPD 52): 73 % of controls | ROS (Normalisation) (% controls) ([6]; untreated sPD 115): 110 % controls | Activated caspase 3 levels [7]: 143 % of level in iNeurons from Controls | Dopamine level (increase in dopamine release) [8]: No effect | % increase over vehicle treated (mean increase in ATP levels) [3]: 12%

Reference: US20220073557A1, “FLUORINATED BILE ACIDS” (NZP UK LIMITED, priority 2018, published 2022)
